{"source": "paper PMC11469372", "about": "“Plasmodium SEY1 is a novel druggable target that contributes to imidazolopiperazine mechanism of action” (Research Square, 2024)", "key": {"[1]": {"target": "T1, PkSEY1 (Plasmodium knowlesi SEY1) (Plasmodium knowlesi, UniProt B3LAJ9)", "T1 construct": "Full-length, His-tagged (recombinant)", "T1 sequence (B3LAJ9 whole entry)": "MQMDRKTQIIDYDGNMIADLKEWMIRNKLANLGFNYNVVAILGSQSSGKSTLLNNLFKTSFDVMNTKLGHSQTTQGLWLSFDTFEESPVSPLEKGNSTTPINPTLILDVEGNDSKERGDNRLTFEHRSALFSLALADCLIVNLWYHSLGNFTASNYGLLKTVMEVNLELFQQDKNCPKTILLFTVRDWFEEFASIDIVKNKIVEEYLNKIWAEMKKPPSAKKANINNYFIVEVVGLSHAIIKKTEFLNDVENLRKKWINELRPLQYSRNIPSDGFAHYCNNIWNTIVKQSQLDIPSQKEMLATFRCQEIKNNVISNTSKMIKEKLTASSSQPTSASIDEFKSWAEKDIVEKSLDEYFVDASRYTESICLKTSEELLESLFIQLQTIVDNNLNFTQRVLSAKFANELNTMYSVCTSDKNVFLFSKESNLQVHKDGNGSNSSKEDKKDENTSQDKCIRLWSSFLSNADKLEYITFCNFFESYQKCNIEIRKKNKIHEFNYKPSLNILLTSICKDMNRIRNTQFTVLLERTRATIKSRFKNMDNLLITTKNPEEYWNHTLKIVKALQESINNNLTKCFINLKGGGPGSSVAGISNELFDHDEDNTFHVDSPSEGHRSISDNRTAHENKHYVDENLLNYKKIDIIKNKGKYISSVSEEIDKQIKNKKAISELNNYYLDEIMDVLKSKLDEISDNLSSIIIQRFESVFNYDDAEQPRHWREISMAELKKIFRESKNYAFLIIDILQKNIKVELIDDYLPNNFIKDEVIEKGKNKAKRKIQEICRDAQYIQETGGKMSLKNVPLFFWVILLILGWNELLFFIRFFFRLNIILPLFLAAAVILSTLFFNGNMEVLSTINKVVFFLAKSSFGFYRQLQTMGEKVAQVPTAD", "assay": "surface plasmon resonance (Biacore […], NTA chip)", "format": "binding"}, "[2]": {"target": "T2, PvSEY1 (Plasmodium vivax SEY1) (Plasmodium vivax, UniProt A5K168)", "T2 construct": "Full-length PvSEY1-myc-His from E. coli, Ni-NTA eluate", "T2 sequence (A5K168 1-889)": "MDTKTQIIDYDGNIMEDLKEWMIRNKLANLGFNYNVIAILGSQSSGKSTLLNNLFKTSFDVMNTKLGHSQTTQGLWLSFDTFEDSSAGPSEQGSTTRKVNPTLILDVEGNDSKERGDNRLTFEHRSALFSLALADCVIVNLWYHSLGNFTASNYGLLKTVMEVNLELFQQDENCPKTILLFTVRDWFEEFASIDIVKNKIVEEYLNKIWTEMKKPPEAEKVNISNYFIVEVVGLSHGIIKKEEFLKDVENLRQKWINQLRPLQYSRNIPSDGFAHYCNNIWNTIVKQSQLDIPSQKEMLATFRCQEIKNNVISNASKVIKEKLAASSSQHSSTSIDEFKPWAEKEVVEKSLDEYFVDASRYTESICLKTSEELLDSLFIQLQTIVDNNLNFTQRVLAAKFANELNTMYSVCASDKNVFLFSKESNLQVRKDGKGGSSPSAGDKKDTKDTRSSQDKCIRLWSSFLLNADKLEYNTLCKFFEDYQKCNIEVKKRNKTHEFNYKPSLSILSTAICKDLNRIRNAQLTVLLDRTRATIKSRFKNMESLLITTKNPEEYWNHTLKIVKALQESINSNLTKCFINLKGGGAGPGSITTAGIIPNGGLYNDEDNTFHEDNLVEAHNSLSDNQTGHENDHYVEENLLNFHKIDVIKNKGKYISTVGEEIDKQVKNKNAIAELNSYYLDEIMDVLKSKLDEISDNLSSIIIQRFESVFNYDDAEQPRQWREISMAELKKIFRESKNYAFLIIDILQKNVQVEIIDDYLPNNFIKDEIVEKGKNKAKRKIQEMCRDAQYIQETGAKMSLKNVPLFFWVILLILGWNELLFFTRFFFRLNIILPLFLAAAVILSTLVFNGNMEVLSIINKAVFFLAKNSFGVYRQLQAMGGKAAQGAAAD", "assay": "GTPase assay (EnzChek free phosphate) at […] GNF179; also destabilized in lysate thermal shift assay", "format": "biochemical"}, "HsFLOT1": {"target": "T3, HsFLOT1 (Homo sapiens, UniProt O75955)", "T3 construct": "gene FLOT1", "T3 sequence (O75955 1-427)": "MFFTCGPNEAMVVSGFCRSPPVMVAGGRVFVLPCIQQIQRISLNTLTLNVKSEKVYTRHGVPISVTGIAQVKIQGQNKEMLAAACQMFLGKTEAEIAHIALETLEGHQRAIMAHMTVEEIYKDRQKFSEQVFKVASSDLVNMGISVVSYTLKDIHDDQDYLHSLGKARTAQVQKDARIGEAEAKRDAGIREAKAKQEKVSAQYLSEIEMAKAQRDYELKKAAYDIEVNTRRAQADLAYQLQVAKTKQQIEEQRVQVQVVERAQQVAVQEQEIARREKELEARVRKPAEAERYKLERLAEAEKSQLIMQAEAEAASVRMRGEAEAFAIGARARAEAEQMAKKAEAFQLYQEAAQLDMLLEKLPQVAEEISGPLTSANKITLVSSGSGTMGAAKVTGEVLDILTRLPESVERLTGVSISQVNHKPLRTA", "assay": "proteomic affinity chromatography with GNF179 beads, competition with free GNF179 (TMT MS/MS), lysate", "format": "biochemical"}, "PfSTOML": {"target": "T4, PfSTOML (Plasmodium falciparum, UniProt O77376)", "T4 construct": "gene PF3D7_0318100", "T4 sequence (O77376 entry or part of it)": "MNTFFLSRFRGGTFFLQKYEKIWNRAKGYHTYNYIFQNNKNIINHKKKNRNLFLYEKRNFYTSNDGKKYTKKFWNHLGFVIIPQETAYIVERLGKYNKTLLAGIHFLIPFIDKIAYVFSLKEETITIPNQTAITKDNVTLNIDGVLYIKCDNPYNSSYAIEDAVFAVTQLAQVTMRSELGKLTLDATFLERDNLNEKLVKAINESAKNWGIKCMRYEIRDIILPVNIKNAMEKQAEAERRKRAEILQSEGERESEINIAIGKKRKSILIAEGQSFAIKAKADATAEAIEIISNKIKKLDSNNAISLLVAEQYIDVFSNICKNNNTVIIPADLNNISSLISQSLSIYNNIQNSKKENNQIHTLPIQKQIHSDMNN", "assay": "proteomic affinity chromatography with GNF179 beads, competition with free GNF179 (TMT MS/MS), parasite lysate", "format": "biochemical"}, "HsFLOT2": {"target": "T5, HsFLOT2 (Homo sapiens, UniProt Q14254)", "T5 construct": "gene FLOT2", "T5 sequence (Q14254 2-428)": "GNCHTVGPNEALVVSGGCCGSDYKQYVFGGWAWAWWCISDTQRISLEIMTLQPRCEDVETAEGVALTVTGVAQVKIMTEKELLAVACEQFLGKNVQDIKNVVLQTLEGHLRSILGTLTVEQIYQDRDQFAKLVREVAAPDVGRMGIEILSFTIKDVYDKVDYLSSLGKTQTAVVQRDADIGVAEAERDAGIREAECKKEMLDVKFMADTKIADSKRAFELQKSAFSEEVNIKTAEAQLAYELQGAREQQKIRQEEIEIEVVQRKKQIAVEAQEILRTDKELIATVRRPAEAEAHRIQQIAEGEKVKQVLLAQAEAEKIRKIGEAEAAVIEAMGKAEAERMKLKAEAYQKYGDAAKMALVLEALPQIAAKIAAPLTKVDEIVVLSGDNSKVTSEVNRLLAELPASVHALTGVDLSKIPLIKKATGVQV", "assay": "proteomic affinity chromatography with GNF179 beads, competition with free GNF179 (TMT MS/MS), lysate", "format": "biochemical"}}, "note": "pKd: −log10 of the molar value."}
{"compound": "CC1(C)c2nc(-c3ccc(F)cc3)c(Nc3ccc(Cl)cc3)n2CCN1C(=O)CN", "note": "[GNF179]", "values": [{"measurement": "pKd", "setting": "[1]", "value": 3.84}, {"measurement": "GTPase assay (EnzChek free phosphate) at 125 μM GNF179; also destabilized in lys", "setting": "[2]", "value": "These results indicate a reduction of PvSEY1 GTPase activity by GNF179."}, {"measurement": "pKd", "setting": "HsFLOT1", "value": 6.47}, {"measurement": "pKd", "setting": "PfSTOML", "value": 5.50}, {"measurement": "pKd", "setting": "HsFLOT2", "value": 6.41}]}
